Results as given in patent US20050075375A1 (priority 2003, published 2005).

Tested on: monocistronic NK5.1 HCV replicon in Huh7 cells
Test: HCV replicon assay, monocistronic replicon cell line
Format: cell-based, hepatitis C virus
Conditions: Hepatitis C virus, Huh-7, 72 h; Table 1; monocistronic replicon in Huh7 cells, 3 days incubation, HCV RNA/GAPDH RNA by TaqMan RT-PCR; read-out: Mono EC50 Median
Source text: HCV Replicon Assays (Replicon EC50 (μM))
HCV replication can be measured by a replicon assay such as described by Vrolijk et al, J. Virol. Methods 110:201(2003), which is hereby incorporated in its entirety by reference. The method was implemented as follows.
Monocistronic Replicon Cell Line:
Human hepatocyte Huh7 cells containing the monocistronic NK5.1 replicon were obtained from Ralf Bartenschlager at the University of Mainz, Germany. These cells were maintained under hygromycin selection and passaged when 80-90% confluent.
This cell line contains an autonomously replicating RNA element (replicon) incorporating the non-structural HCV elements necessary for replication, and upon which the survival of the replicon in the cell depends. This replicon contains a single internal ribosome entry site (HCV IRES). Inhibition of any of the critical HCV finctions by a compound leads to loss of the replicon as measured by HCV replicon RNA copy number reduction. The amount of HCV RNA present following a standard incubation with a compound is a measure of the anti-HCV activity of the compound. The assay was conducted by preparing sufficient 96-well plates containing these cells, wherein cells are seeded at 6000 cells/well in a 96-well plate, in 200 μl of final media volume. Cells were then incubated for 24 hours at 37 C., 5% CO2, and 95% humidity before compound was added. Six point half-log concentration response assays were conducted to determine potency/EC50 of Formula I compounds to inhibit HCV replicon replication. The final percent DMSO acceptable in this assay system is 0.6%. Compounds were diluted in media in an appropriate format and 5 μl of each drug dilution is added to each well. Cells were then incubated with compounds for 3 days at 37 C., 5% CO2, and 95% humidity. Following the three day incubation period, plates were washed twice with phosphate buffered saline to remove media and cells were lysed with Qiagen extraction buffer. RNA was extracted and isolated with the Qiagen RNAeasy kit according to the manufacturer's protocol (Qiagen). TaqMan One-Step RT-PCR was used in conjunction with an ABI 7700 Sequence Detector (Applied Biosystems) for the quantitation and analysis of HCV replicon RNA copy number. A GAPDH probe was used for internal normalization. The ratio of HCV RNA to cellular GAPDH RNA was determined and compared to the DMSO-only treated control, and the ratio of HCV RNA/GAPDH RNA was used for an EC50 determination and as a measure of specificity for inhibition of the HCV replicon.

| SMILES | EC50 |
| --- | --- |
| Cc1cc(-c2c(O)ccc3ccccc23)nn1-c1ccccc1[N+](=O)[O-] [Compound 1, 1-[5-Methyl-1-(2-nitro-phenyl)-1 H-pyrazol-3-yl]-naphthalen-2-ol] | > 32 µM |
| Cc1cc(-c2ccccc2O)nn1-c1ccccc1[N+](=O)[O-] [Compound 2, 2-[5-Methyl-1-(2-nitro-phenyl)-1H-pyrazol-3-yl]-phenol] | > 32 µM |
| Cc1cc(-c2ccccc2O)n(-c2ccccc2[N+](=O)[O-])n1 [Compound 3, 2-[5-Methyl-2-(2-nitro-phenyl)-2H-pyrazol-3-yl]-phenol] | 31 µM |
| Cc1cc(-c2c(O)ccc3ccccc23)nn1-c1ccccc1 [Compound 4, 1-(5-Methyl-1-phenyl-1H-pyrazol-3-yl)-naphthalen-2-ol] | > 19 µM |
| Cc1cc(-c2c(O)ccc3ccccc23)nn1-c1ccccc1C(F)(F)F [Compound 5, 1-[5-Methyl-1-(2-trifluoromethyl-phenyl)-1H-pyrazol-3-yl]-naphthalen-2-ol] | > 19 µM |
| Cc1cc(-c2c(O)ccc3ccccc23)n(-c2ccccc2C(F)(F)F)n1 [Compound 6, 1-[5-Methyl-2-(2-trifluoromethyl-phenyl)-2H-pyrazol-3-yl]-naphthalen-2-ol] | 13 µM |
| Cc1cc(-c2ccccc2O)nn1-c1ccccc1C(F)(F)F [Compound 7, 2-[5-Methyl-i-(2-trifluoromethyl-phenyl)-1H-pyrazol-3-yl]-phenol] | 20 µM |
| COc1ccc(-n2nc(-c3c(O)ccc4ccccc34)cc2C)cc1 [Compound 8] | > 19 µM |
| Cc1cc(-c2ccc3ccccc3c2O)n(-c2ccccn2)n1 [Compound 9, 2-(5-Methyl-2-pyridin-2-yl-2H-pyrazol-3-yl)-naphthalen-1-ol] | > 19 µM |
| Cc1cc(-c2cc(C)c(C)cc2O)n(-c2ccccc2C)n1 [Compound 10, 4,5-Dimethyl-2-(5-methyl-2-o-tolyl-2H-pyrazol-3-yl)-phenol] | > 19 µM |
| Cc1cc(-c2ccccc2O)nn1-c1ccccc1 [Compound 11, 2-(5-Methyl-1-phenyl-1H-pyrazol-3-yl)-phenol] | 9 µM |
| Cc1cc(-c2ccc3ccccc3c2O)nn1-c1ccccc1[N+](=O)[O-] [Compound 12, 2-[5-Methyl-1-(2-nitro-phenyl)-1H-pyrazol-3-yl]-naphthalen-1-ol] | 13 µM |
| Cc1cc(-c2c(O)ccc3ccccc23)nn1-c1ccc(C(C)C)cc1 [Compound 13, 1-[1-(4-Isopropyl-phenyl)-5-methyl-1H-pyrazol-3-yl]-naphthalen-2-ol] | > 19 µM |
| COc1ccc(-n2nc(-c3ccccc3O)cc2C)cc1 [Compound 14, 2-[1-(4-Methoxy-phenyl)-5-methyl-1H-pyrazol-3-yl]-phenol] | 11 µM |
| Cc1cc(O)c(-c2cc(C)n(-c3ccccc3F)n2)cc1C [Compound 15, 2-[1-(2-Fluoro-phenyl)-5-methyl-1H-pyrazol-3-yl]-4,5-dimethyl-phenol] | > 19 µM |
| Cc1cc(-c2ccc3ccccc3c2O)nn1-c1ccccc1C(F)(F)F [Compound 16, 2-[5-Methyl-1-(2-trifluoromethyl-phenyl)-1H-pyrazol-3-yl]-naphthalen-1-ol] | 17 µM |
| Cc1cc(O)c(-c2cc(C)n(-c3ccccc3)n2)cc1C [Compound 17, 4,5-Dimethyl-2-(5-methyl-1-phenyl-1H-pyrazol-3-yl)-phenol] | > 19 µM |
| Cc1cc(-c2c(O)ccc3ccccc23)nn1-c1ccc(Cl)cc1 [Compound 18, 1-[1-(4-Chloro-phenyl)-5-methyl-1H-pyrazol-3-yl]-naphthalen-2-ol] | 18 µM |
| Cc1cc(-c2ccc3ccccc3c2O)n(-c2ccc(Cl)cc2)n1 [Compound 19, 2-[2-(4-Chloro-phenyl)-5-methyl-2H-pyrazol-3-yl]-naphthalen-1-ol] | 17 µM |
| Cc1cc(-c2c(O)ccc3ccccc23)nn1-c1ncc(C(F)(F)F)cc1Cl [Compound 20, 1-[1-(3-Chloro-5-trifluoromethyl-pyridin-2-yl)-5-methyl-1H-pyrazol-3-yl]-naphthalen-2-ol] | 13 µM |
| Cc1cc(O)c(-c2cc(C)n(-c3ccc(Cl)cc3)n2)cc1C [Compound 22, 2-[1-(4-Chloro-phenyl)-5-methyl-1H-pyrazol-3-yl]-4,5-dimethyl-phenol] | > 19 µM |
| Cc1cc(O)c(-c2cc(C)n(-c3nc4ccccc4s3)n2)cc1C [Compound 23, 2-(l-Benzothiazol-2-yl-5-methyl-1H-pyrazol-3-yl)-4,5-dimethyl-phenol] | > 19 µM |

| SMILES | EC50 |
| --- | --- |
| Cc1cc(O)c(-c2cc(C)n(-c3ccccc3C(F)(F)F)n2)cc1C [Compound 24, 4,5-Dimethyl-2-[5-methyl-i-(2-trifluoromethyl-phenyl)-1H-pyrazol-3-yl]-phenol] | > 19 µM |
| Cc1cc(-c2c(O)ccc3ccccc23)nn1-c1ncccc1[N+](=O)[O-] [Compound 25, 1-[5-Methyl-1-(3-nitro-pyridin-2-yl)-1H-pyrazol-3-yl]-naphthalen-2-ol] | > 19 µM |
| Cc1cc(-c2c(O)ccc3ccccc23)nn1-c1ncccc1C(F)(F)F [Compound 26, 1-[5-Methyl-1-(3-trifluoromethyl-pyridin-2-yl)-1H-pyrazol-3-yl]-naphthalen-2-ol] | > 19 µM |
| Cc1cc(C(F)(F)F)cc(-n2nc(-c3c(O)ccc4ccccc34)cc2C)n1 [Compound 27, 1-[5-Methyl-i-(6-methyl-4-trifluoromethyl-pyridin-2-yl)-1 H-pyrazol-3-yl]-naphthalen-2-ol] | 12 µM |
| Cc1cc(-c2c(O)ccc3ccccc23)nn1-c1ccccn1 [Compound 28, 1-(5-Methyl-1-pyridin-2-yl-1H-pyrazol-3-yl)-naphthalen-2-ol] | > 19 µM |
| Cc1cc(-c2ccc3ccccc3c2O)nn1-c1ccc(C(C)C)cc1 [Compound 29, 2-[1-(4-Isopropyl-phenyl)-5-methyl-1H-pyrazol-3-yl]-naphthalen-1-ol] | > 19 µM |
| Cc1cc(O)c(-c2cc(C)n(-c3ccc(C(C)C)cc3)n2)cc1C [Compound 30, 2-[1-(4-Isopropyl-phenyl)-5-methyl-1H-pyrazol-3-yl]-4,5-dimethyl-phenol] | 12 µM |
| COc1ccccc1-c1ccn(-c2ccccc2[N+](=O)[O-])n1 [Compound 31, 3-(2-Methoxy-phenyl)-1-(2-nitro-phenyl)-1H-pyrazole] | 21 µM |
| COc1ccccc1-c1ccnn1-c1ccccc1[N+](=O)[O-] [Compound 32, 5-(2-Methoxy-phenyl)-1-(2-nitro-phenyl)-1H-pyrazole] | 3.6 µM |
| Oc1ccccc1-c1ccnn1-c1ccccc1F [Compound 35, 2-[2-(2-Fluoro-phenyl)-2H-pyrazol-3-yl]-phenol] | 14 µM |
| COc1ccccc1-c1ccn(-c2ncccc2[N+](=O)[O-])n1 [Compound 36, 2-[3-(2-Methoxy-phenyl)-pyrazol-1-yl]-3-nitro-pyridine] | 2.3 µM |
| COc1ccccc1-c1ccnn1-c1ncccc1[N+](=O)[O-] [Compound 37, 2-[5-(2-Methoxy-phenyl)-pyrazol-1-yl]-3-nitro-pyridine] | > 32 µM |
| COc1ccccc1-c1ccn(-c2ncccc2C(F)(F)F)n1 [Compound 38, 2-[3-(2-Methoxy-phenyl)-pyrazol-1-yl]-3-trifluoromethyl-pyridine] | 13 µM |
| COc1ccccc1-c1ccn(-c2ccccn2)n1 [Compound 39, 2-[3-(2-Methoxy-phenyl)-pyrazol-1-yl]-pyridine] | > 32 µM |
| COc1ccccc1-c1ccnn1-c1ccccn1 [Compound 40, 2-[5-(2-Methoxy-phenyl)-pyrazol-1-yl]-pyridine] | > 32 µM |
| O=[N+]([O-])c1cccnc1-n1ccc(-c2ccccc2O)n1 [Compound 41, 2-[1-(3-Nitro-pyridin-2-yl)-1H-pyrazol-3-yl]-phenol] | 6 µM |
| Oc1ccccc1-c1ccn(-c2ncccc2C(F)(F)F)n1 [Compound 42, 2-[1-(3-Trifluoromethyl-pyridin-2-yl)-1H-pyrazol-3-yl]-phenol] | 6 µM |
| Oc1ccccc1-c1ccn(-c2ccccn2)n1 [Compound 43, 2-(1-Pyridin-2-yl-1H-pyrazol-3-yl)-phenol] | 15 µM |
| Oc1ccccc1-c1ccnn1-c1ccccn1 [Compound 44, 2-(2-Pyridin-2-yl-2H-pyrazol-3-yl)-phenol] | > 32 µM |
| COc1ccc(-c2ccn(-c3ncccc3[N+](=O)[O-])n2)c(F)c1 [Compound 45, 2-[3-(2-Fluoro-4-methoxy-phenyl)-pyrazol-1-yl]-3-nitro-pyridine] | 5.8 µM |
| COc1ccc(-c2ccnn2-c2ncccc2[N+](=O)[O-])c(F)c1 [Compound 46, 2-[5-(2-Fluoro-4-methoxy-phenyl)-pyrazol-1-yl]-3-nitro-pyridine] | 6 µM |
